# Measured values published in ChEMBL document CHEMBL5034015, “Structure-Based Optimization of 3-Phenyl-N-(2-(3-phenylureido)ethyl)thiophene-2-sulfonamide Derivatives as Selective Mcl-1 Inhibitors” (J Med Chem, 2021).
# Active and inactive are the calls of the source.
# Key:
# HEK-293T = test: Cytotoxicity against HEK293T cells assessed as reduction in cell viability incubated for 48 hrs by CCK8 assay; conditions: Homo sapiens
# Bcl-2-like protein 1 = Bcl-2-like protein 1 (Homo sapiens, UniProt Q07817); test: Binding affinity to full length human Bcl-xl expressed in Escherichia coli BL21 (DE3) at up to 100 uM preincubated for 30 mins followed by 5-FAM-QEDIIIINIARHLAQVGDSMD-RSIPPG tracer addition and measured after 20 mins by fluorescence polarization assay; conditions: dose microM <=100, time 50.0 min
# Chain of Bcl-2-like protein 1 (Q07817 whole entry): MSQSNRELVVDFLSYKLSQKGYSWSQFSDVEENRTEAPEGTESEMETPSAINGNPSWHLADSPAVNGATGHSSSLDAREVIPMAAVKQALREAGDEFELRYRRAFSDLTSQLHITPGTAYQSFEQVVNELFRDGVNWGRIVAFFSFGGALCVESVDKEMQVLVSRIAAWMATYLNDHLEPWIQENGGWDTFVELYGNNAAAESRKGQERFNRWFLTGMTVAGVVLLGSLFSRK
# [1] = biological target: Apoptosis regulator Bcl-2 (Homo sapiens, UniProt P10415); test: Binding affinity to full length human Bcl-2 expressed in Escherichia coli BL21 (DE3) at up to 100 uM preincubated for 30 mins followed by 5-FAM-QEDIIIINIARHLAQVGDSMD-RSIPPG tracer addition and measured after 20 mins by fluorescence polarization assay; conditions: dose microM <=100, time 50.0 min
# Chain of Apoptosis regulator Bcl-2 (P10415 whole entry): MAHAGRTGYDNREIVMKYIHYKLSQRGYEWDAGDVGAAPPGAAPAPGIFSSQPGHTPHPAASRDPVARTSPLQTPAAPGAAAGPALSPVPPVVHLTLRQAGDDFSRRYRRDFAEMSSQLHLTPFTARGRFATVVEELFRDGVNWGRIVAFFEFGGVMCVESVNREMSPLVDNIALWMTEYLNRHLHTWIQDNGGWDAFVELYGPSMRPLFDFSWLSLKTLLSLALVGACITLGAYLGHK
# [2] = biological target: Induced myeloid leukemia cell differentiation protein Mcl-1 (Homo sapiens, UniProt Q07820); test: Binding affinity to full length human MCL1 expressed in Escherichia coli BL21 (DE3) at up to 100 uM preincubated for 30 mins followed by 5-FAM-QEDIIIINIARHLAQVGDSMD-RSIPPG tracer addition and measured after 20 mins by fluorescence polarization assay; conditions: dose microM <=100, time 50.0 min
# Chain of Induced myeloid leukemia cell differentiation protein Mcl-1 (Q07820 whole entry): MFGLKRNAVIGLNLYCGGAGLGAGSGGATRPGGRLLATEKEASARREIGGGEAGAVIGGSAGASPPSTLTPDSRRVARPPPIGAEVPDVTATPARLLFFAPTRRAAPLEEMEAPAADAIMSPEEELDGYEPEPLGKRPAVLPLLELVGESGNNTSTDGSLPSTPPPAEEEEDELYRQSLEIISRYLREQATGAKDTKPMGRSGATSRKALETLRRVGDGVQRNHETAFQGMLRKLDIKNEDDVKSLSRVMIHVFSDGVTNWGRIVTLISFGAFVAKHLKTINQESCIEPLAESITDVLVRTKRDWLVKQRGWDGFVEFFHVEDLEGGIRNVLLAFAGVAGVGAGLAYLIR
# HeLa = test: cells; conditions: Homo sapiens, 48 h
# Description: Cytotoxicity against human HeLa cells assessed as inhibition of cell growth incubated for 48 hrs by CCK8 assay
# HL-60 = test: cells; conditions: Homo sapiens, HL-60, 48 h
# Description: Cytotoxicity against human HL-60 cells assessed as inhibition of cell growth incubated for 48 hrs by CCK8 assay
# RS4-11 = test: cells; conditions: Homo sapiens, RS4-11, 48 h
# Description: Cytotoxicity against human RS4-11 cells assessed as inhibition of cell growth incubated for 48 hrs by CCK8 assay
Structure (SMILES),IC50 (HEK-293T) [µM],Activity (Bcl-2-like protein 1),Activity [1],Activity [2],IC50 (HeLa) [µM],IC50 (HL-60) [µM],IC50 (RS4-11) [µM]
O=[N+]([O-])c1ccc(Oc2ccccc2-c2ccc(S(=O)(=O)NCCNC(=S)Nc3cc(C(F)(F)F)cc(C(F)(F)F)c3)s2)cc1,6,inactive,inactive,inactive,9.9,7.2,6.3
COc1ccc(Oc2ccc(C(C)C)cc2-c2ccsc2S(=O)(=O)NCCNC(=S)Nc2ccc([N+](=O)[O-])cc2)cc1OC,11.4,inactive,inactive,inactive,11.9,11.2,5.8
O=C(NCCNS(=O)(=O)c1ccc(-c2ccccc2Oc2ccc([N+](=O)[O-])c([N+](=O)[O-])c2)s1)Nc1ccc([N+](=O)[O-])cc1,16.6,inactive,inactive,inactive,> 20,0.34,3
O=S(=O)(NCCNC(=S)Nc1cc(C(F)(F)F)cc(C(F)(F)F)c1)c1ccc(-c2ccccc2OCc2cccc(O)c2)s1,> 20,inactive,inactive,inactive,14.9,> 50,12
O=S(=O)(NCCNC(=S)Nc1cc(C(F)(F)F)cc(C(F)(F)F)c1)c1ccc(-c2ccccc2O[C@H]2CC[C@@H](O)CC2)s1,> 20,inactive,inactive,inactive,10.9,2.6,6.3
CC(C)c1ccc(Oc2ccc(O)c(O)c2)c(-c2ccsc2S(=O)(=O)NCCNC(=S)Nc2ccc([N+](=O)[O-])cc2)c1,16.3,inactive,inactive,inactive,> 20,8.8,5.1
COc1ccc(Oc2ccc(C(C)C)cc2-c2ccsc2S(=O)(=O)NCCNC(=O)Nc2cc(C(F)(F)F)cc(C(F)(F)F)c2)cc1OC,12.1,inactive,inactive,inactive,11.6,7.4,11.7
O=C(NCCNS(=O)(=O)c1ccc(-c2ccccc2OCc2cccc(O)c2)s1)Nc1cc(Cl)cc(Cl)c1,> 20,inactive,inactive,inactive,> 50,2.8,> 50
COc1ccc(NC(=O)NCCNS(=O)(=O)c2ccc(-c3ccccc3OCc3cccc(O)c3)s2)cc1,> 20,inactive,inactive,inactive,> 20,> 20,9.4
O=C(NCCNS(=O)(=O)c1ccc(-c2ccccc2OCc2cccc(O)c2)s1)Nc1cc(C(F)(F)F)cc(C(F)(F)F)c1,> 20,inactive,inactive,inactive,17.3,4,3
O=S(=O)(NCCNC(=S)Nc1cccc(Cl)c1)c1ccc(-c2ccccc2OCc2cccc(O)c2)s1,17.4,inactive,inactive,inactive,10.7,1.8,5.8
COc1cccc(NC(=O)NCCNS(=O)(=O)c2sccc2-c2ccc(C)cc2Oc2ccc(O)c(O)c2)c1,> 20,inactive,inactive,inactive,> 20,3.6,7.5
O=[N+]([O-])c1ccc(Oc2ccccc2-c2ccc(S(=O)(=O)NCCNC(=S)Nc3cccc(Cl)c3)s2)cc1,4.99,inactive,inactive,inactive,4.6,> 50,> 50
COc1cccc(NC(=O)NCCNS(=O)(=O)c2ccc(-c3ccccc3Oc3ccc([N+](=O)[O-])c([N+](=O)[O-])c3)s2)c1,17.8,inactive,inactive,inactive,> 20,6.7,1.3
COc1ccc(NC(=O)NCCNS(=O)(=O)c2ccc(-c3ccccc3Oc3ccc([N+](=O)[O-])c([N+](=O)[O-])c3)s2)cc1,18.5,inactive,inactive,inactive,> 20,5.4,1.4
Cc1cc(C)cc(NC(=O)NCCNS(=O)(=O)c2ccc(-c3ccccc3OCc3ccccc3)s2)c1,> 20,inactive,inactive,inactive,> 50,2.2,> 50
O=C(NCCNS(=O)(=O)c1ccc(-c2ccccc2Oc2ccc([N+](=O)[O-])c([N+](=O)[O-])c2)s1)Nc1cc(Cl)cc(Cl)c1,> 20,inactive,inactive,inactive,> 20,2.3,2.1
O=C(NCCNS(=O)(=O)c1ccc(-c2ccccc2O[C@H]2CC[C@H](O)CC2)s1)Nc1ccc([N+](=O)[O-])cc1,9,inactive,inactive,inactive,10.5,8.9,4.1
O=C(NCCNS(=O)(=O)c1ccc(-c2ccccc2O[C@H]2CC[C@H](O)CC2)s1)Nc1cc(Cl)cc(Cl)c1,> 50,inactive,inactive,inactive,> 20,> 20,14.1
O=C(NCCNS(=O)(=O)c1ccc(-c2ccccc2OCc2ccccc2)s1)Nc1cc(C(F)(F)F)cc(C(F)(F)F)c1,> 20,inactive,inactive,inactive,13.5,11.4,> 50
O=[N+]([O-])c1ccc(NC(=S)NCCNS(=O)(=O)c2ccc(-c3ccccc3O[C@H]3CC[C@@H](O)CC3)s2)cc1,20,inactive,inactive,inactive,> 20,> 50,9.4
Cc1cc(C)cc(NC(=O)NCCNS(=O)(=O)c2ccc(-c3ccccc3OCc3cccc(O)c3)s2)c1,> 20,inactive,inactive,inactive,> 20,> 20,5.8
COc1ccc(Oc2ccc(C(C)C)cc2-c2ccsc2S(=O)(=O)NCCNC(=O)Nc2cc(Cl)cc(Cl)c2)cc1OC,11.9,inactive,inactive,inactive,11.6,6.5,9
